# Assay results reported in patent US20220227813A1, “Ras INHIBITORY PEPTIDE” (ICHIMARU PHARCOS CO., LTD., priority 2019, published 2022).
# Starred links: 1 amine or outer side, 2 acyl side, 3 side chain; linkers in the order of their positions; H or OH if unused. Positions of bridges follow the written chain, without caps; N, C: chain ends. Non-standard residues stand in square brackets, D forms with d. Residues, ends and D or L forms follow the SMILES beside them. Phe(4-F) = N[C@@H](Cc1ccc(F)cc1)C(=O)O; X1 = CCCCCCC[C@H](N[*:1])C(=O)[*:2]; Nle = CCCC[C@H](N)C(=O)O; X2 = C(C[*:1])C[*:2]; βAla = NCCC(=O)O
# How the values were obtained:
# [1] = resistance to protease degradation in rat plasma (RP-HPLC); format: in vitro ADME; conditions: 37° C., 24 hours compared to 0 hours
# Experimental: For 1 μL of each 10 mM peptide, 20 μL of rat plasma was added and incubated at 37° C. for an arbitrary time (0 or 24 hours). […] To remove plasma proteins, the mixture was centrifuged at a speed of 15,000 rpm under 4° C. for 10 min. The supernatant was collected and the remaining amount of peptide was detected by RP-HPLC (solution A: 0.1% TFA/water, solution B: 0.1% TFA/acetonitrile, 20 min gradient of 80% solution A→10% solution A at 1 mL/min) using a SunFire C18 column (5 μm, 4.6×^150 mm).
# [2] = test system: PANC-1 cells expressing K-Ras (G12D); experiment: cell proliferation test, PANC-1 cells; format: cell-based; conditions: final concentration 30 μM, ATP quantification (CellTiter-Glo), N=4
# Experimental: The following is a brief description of the cell proliferation test, which may be performed according to the Non-Patent Literature 3. A427 cells expressing K-Ras(G12D) (Catalog No. HTB-53, ATCC) or PANC-1 cells expressing K-Ras (G12D) (Catalog No. CRL-1469, ATCC) were spread into 96-well plates at 1×10^3 cells/well and cultured overnight at 37° C. in a CO2 incubator. Peptides diluted in serum medium (final concentration 30 μM) were added to the wells, and after culturing for 24 hours, all the medium was removed, and then freshly diluted peptides in serum medium (final concentration 30 μM) were added to the wells and incubated for 24 hours. The number of cells in the wells was quantified by CellTiter-Glo (Catalog No. G7570, Promega) after the removal of medium and addition of peptide for a total of three times.
# [3] = test system: PANC-1 cells expressing K-Ras(G12D); experiment: anticancer activity in subcutaneous carcinoma-bearing mice; format: in vivo; conditions: 40 mg/kg tail vein once every two days
# Experimental: PANC-1 cells expressing K-Ras(G12D) (Catalog No. CRL-1469, ATCC) were transplanted at 1×10^7 cells under the left inguinal skin of Crl:SHO-Prkdc^scidHr^hr mice (female, 7 weeks old) (Charles River, Japan). When the tumor volume reached approximately 50 mm^3, the mice were submitted to the study. Tumor volume was determined by measuring the long diameter (mm) and the short diameter (mm) orthogonal to the long diameter from the skin surface with calipers and using the formula: (long diameter)×(short diameter)^2×0.5, with the unit being mm^3. A representative example of the peptide in one of embodiments (Seq-17) was dissolved in DMSO, diluted 10 times with saline, and administered at 40 mg/kg through the tail vein once every two days, and the body weight and tumor volume of mice were measured over time (peptide administration group: N=10, vehicle group: N=4). The vehicle group was the group in which cancer cells were implanted and saline (10% DMSO) was administered.
# [4] = test system: PANC-1 cells expressing K-Ras(G12D); experiment: anticancer activity in orthotopic transplant model mice; format: in vivo; conditions: 40 mg/kg tail vein once every two days
# Experimental: PANC-1 cells expressing K-Ras(G12D) (Catalog No. CRL-1469, ATCC) were transplanted at 2.5×10^6 cells under the tail capsule of the pancreas of BALB/cAJc1-nu/nu mice (male, 8 weeks old) (Nihon Clare Co., Ltd.), and were used for the test one week later. The peptide (Seq-17) synthesized in this study was dissolved in DMSO, diluted 10-fold with saline, and administered at 40 mg/kg through the tail vein once every two days, and the body weight of the mice was measured over time (Sham group, peptide administration group, and vehicle group: N=7 for each). The Sham group was the group that received saline (10% DMSO) without cancer cell transplantation, and the Vehicle group was the group that received saline (10% DMSO) with cancer cell transplantation. The weight of the mice and the weight of their organs (pancreas, liver, and kidney) were measured four weeks after the start of administration.
structure (smiles),measurement,setting,value
"CCCCCCC[C@@H]1NC(=O)[C@@H]2CSCCCSC[C@@H](NC(=O)[C@H](Cc3c[nH]c4ccccc34)NC(=O)[C@@H]3CCCN3C(=O)[C@H](CC(=O)O)NC(=O)[C@H](Cc3ccc(F)cc3)NC(=O)[C@H](CO)NC1=O)C(=O)NCCC(=O)N1CCC[C@H]1C(=O)N[C@@H](CCCC)C(=O)N2 [Seq-17, c[βAla-Pro-Nle-c(Cys-Anon-Ser-4fF-Asp-Pro-Trp-^DCys)]] (cyclo([βAla]P[Nle]C[X1]S[Phe(4-F)]DPW[dC]); linker 4-11 via X2)",peptide-derived RP-HPLC peak remaining after incubation in rat plasma,[1],remained almost the same
same,growth inhibitory activity against PANC-1 cells,[2],inhibited the proliferation
same,body weight of the mice,[3],no decrease
same,increase in tumor volume,[3]; p-value (Student's t-test) less than 0.005,significantly suppressed
same,body weight of the mice,[4],no decrease
same,weight of kidney,[4]; four weeks,no significant difference
same,weight of liver,[4]; four weeks,no significant difference
same,increase in the weight of pancreas,"[4]; four weeks, p-value (Student's t-test) less than 0.05",significantly suppressed
